# Assay results as given in article PMC12032302, “A20 attenuates oxidized self-DNA-mediated inflammation in acute kidney injury” (Signal Transduction and Targeted Therapy, 2025).
# Columns and labels:
# patients = conditions: first course of cisplatin treatment; cited from earlier work
# Excerpt: Acute kidney injury (AKI) is a life-threatening condition characterized by a rapid loss of renal function, leading to high mortality and morbidity.[1],[2] Approximately 13% of patients received the first course of cisplatin treatment developed AKI.[2],[3] Despite various initial triggers, the pathophysiology of AKI often involves common pathogenic denominators, such as cell death, tissue injury, and drastic inflammation.[4] Several types of cell death have been recently described in AKI, and multiple strategies targeting cell death have been reported to help mitigate the progression of AKI.[5] ...
# AKI mice [1] = experiment: survival of AKI mice; format: in vivo, mouse; conditions: n = 10 per group
# Method: (§1) Aristolochic acid I sodium salt was dissolved in PBS to 1 mg/mL and injected intraperitoneally at a dose of 10 mg/kg (body weight) every 24 h for 3 days; cisplatin was dissolved in PBS to 1.5 mg/mL for one-time intraperitoneal 25 mg/kg injection; LPS (Sigma, Cat#L2630) was dissolved in PBS to 2.5 mg/mL for one-time intraperitoneal 25 mg/kg injection; deoxyribonuclease I (DNase I, Sigma, Cat#SLBV1446) was dissolved in PBS to 1 mg/mL and injected intraperitoneally at a dose of 10 mg/kg at 4 h before cisplatin or AA I injection and every 24 h after injection. Disulfiram (MedChemExpress, CAS:97-77-8) was diluted in corn oil to 12.5 mg/mL and injected 50 mg/kg intraperitoneally every 24 h after cisplatin or AA I administration. Cu(II) (Sigma, Cat#344419) was dissolved in PBS to 30 µg/mL and administered intraperitoneally 6 h before disulfiram at a dose of 0.15 mg/kg; TNF-α (Peprotech, Cat#315-01 A) was dissolved in PBS to 10 µg/mL and injected at 100 µg/kg once through the caudal vein 24 h before cisplatin injection. Metformin (Sigma, Cat#D150959) was dissolved in PBS to 5 mg/mL and injected intraperitoneally at a dose of 50 mg/kg 24 h before cisplatin or AA I injection and every 24 h after injection. MCC950 (MedChem Express, CAS:256373-96-3) was dissolved in PBS to 5 mg/mL and injected intraperitoneally at a dose of 50 mg/kg 12 h before cisplatin or AA I injection and every 12 h after injection; berberine (APExBIO, Cat#N1368) was dissolved in PBS to 5 mg/mL and 5 mg/kg injected intraperitoneally at 36, 24 and 12 h before cisplatin; A20-derived-peptide was dissolved in ddH2O to 3 mg/mL and injected intraperitoneally at a dose of 15 mg/kg 1 h before cisplatin. To supervise the effects of various treatments on survival time and rate, the mice were observed, and survival curves were generated. To investigate the specific mechanisms, whole blood was retrieved from the orbit, serum was separated through centrifugation on the 4th day, and the mice were then sacrificed by cervical dislocation. Mice were randomly assigned in experiments, while there was no blinding during the animal experiments.
# AKI mice [2] = experiment: serum creatinine of AKI mice; format: in vivo, mouse
# Method: (§2) LPS (Sigma, Cat#L2630) was dissolved in PBS to 2.5 mg/mL for one-time intraperitoneal 25 mg/kg injection; deoxyribonuclease I (DNase I, Sigma, Cat#SLBV1446) was dissolved in PBS to 1 mg/mL and injected intraperitoneally at a dose of 10 mg/kg at 4 h before cisplatin or AA I injection and every 24 h after injection. Disulfiram (MedChemExpress, CAS:97-77-8) was diluted in corn oil to 12.5 mg/mL and injected 50 mg/kg intraperitoneally every 24 h after cisplatin or AA I administration. Cu(II) (Sigma, Cat#344419) was dissolved in PBS to 30 µg/mL and administered intraperitoneally 6 h before disulfiram at a dose of 0.15 mg/kg; TNF-α (Peprotech, Cat#315-01 A) was dissolved in PBS to 10 µg/mL and injected at 100 µg/kg once through the caudal vein 24 h before cisplatin injection. […] MCC950 (MedChem Express, CAS:256373-96-3) was dissolved in PBS to 5 mg/mL and injected intraperitoneally at a dose of 50 mg/kg 12 h before cisplatin or AA I injection and every 12 h after injection; berberine (APExBIO, Cat#N1368) was dissolved in PBS to 5 mg/mL and 5 mg/kg injected intraperitoneally at 36, 24 and 12 h before cisplatin; […] To supervise the effects of various treatments on survival time and rate, the mice were observed, and survival curves were generated. To investigate the specific mechanisms, whole blood was retrieved from the orbit, serum was separated through centrifugation on the 4th day, and the mice were then sacrificed by cervical dislocation. Mice were randomly assigned in experiments, while there was no blinding during the animal experiments. Renal function was evaluated based on serum creatinine level and histological features. Serum creatinine was determined in the Clinical Pharmacology Lab, Clinical Trial Center, WCH, SCU. The kidneys were extracted from euthanized mice, immediately fixed with 4% paraformaldehyde, and embedded in paraffin. Furthermore, the samples were cut into 5 µm thick sections. These tissue samples were subjected to hematoxylin-eosin (HE) and […] according to standard protocols with HE reagent (Biosharp, Cat#BL702B, BL703B) and Masson reagent (Servicebio, Cat#G1006-100ML). The pathological changes were detected through optical microscopy, and the tubulointerstitial injury score was determined as previously reported.
# AKI mice [3] = experiment: tubular injury / renal injury of AKI mice (HE histology); format: in vivo, mouse
# Method: as §2
# AKI mice [4] = experiment: renal fibrosis of AKI mice (Masson staining); format: in vivo, mouse; conditions: Cis mice; metformin 50 mg/kg i.p. 24 h before and every 24 h after; n = 5
# Method: LPS (Sigma, Cat#L2630) was dissolved in PBS to 2.5 mg/mL for one-time intraperitoneal 25 mg/kg injection; deoxyribonuclease I (DNase I, Sigma, Cat#SLBV1446) was dissolved in PBS to 1 mg/mL and injected intraperitoneally at a dose of 10 mg/kg at 4 h before cisplatin or AA I injection and every 24 h after injection. Disulfiram (MedChemExpress, CAS:97-77-8) was diluted in corn oil to 12.5 mg/mL and injected 50 mg/kg intraperitoneally every 24 h after cisplatin or AA I administration. Cu(II) (Sigma, Cat#344419) was dissolved in PBS to 30 µg/mL and administered intraperitoneally 6 h before disulfiram at a dose of 0.15 mg/kg; TNF-α (Peprotech, Cat#315-01 A) was dissolved in PBS to 10 µg/mL and injected at 100 µg/kg once through the caudal vein 24 h before cisplatin injection. […] Renal function was evaluated based on serum creatinine level and histological features. Serum creatinine was determined in the Clinical Pharmacology Lab, Clinical Trial Center, WCH, SCU. […] The pathological changes were detected through optical microscopy, and the tubulointerstitial injury score was determined as previously reported.
# NEK7 [5] = experiment: NEK7 expression in iBMDMs (immunoblot); format: cell-based, mouse; conditions: LPS plus metformin 0, 1, 2 or 5 mM, Fig. 9a
# Method: For immunoblot analysis of kidney tissue, total protein lysates were prepared from renal tissue, which was ground in liquid nitrogen and then added to lysis buffer in a Total Protein Extraction Kit (Signalway Antibody, Cat#PE001). Samples were centrifuged at 12,000 rpm for 15 min at 4 °C, and the supernatant was collected immediately. For immunoblot analysis of cells, cultured cells after treatment were lysed with lysis buffer, which was premixed with protease and phosphatase inhibitors (Signalway Antibody, Cat#PE001). The samples were centrifuged at 12,000 r/min for 15 min at 4 °C, and the supernatant was collected immediately. Ultimately, both types of protein samples were then mixed with 4× Laemmli loading buffer (Bio-Rad, Cat#1610747) and denatured by boiling at 95 °C for 5 min.
# (§3) Prepared protein samples were subjected to 6-15% SDS polyacrylamide gels and separated according to the protein concentrations. Then, the protein bands were transferred to polyvinylidene difluoride (PVDF) membranes by a wet transfer apparatus (Bio-Rad, USA). […] The protein bands were detected with an enhanced chemiluminescence kit (Millipore, Cat#WBKLS0500) using a gel imaging system (Bio-Rad, USA) for visualization and standardization of the amount of protein loaded. α-Tubulin was used as the internal control.
# NEK7 [6] = experiment: NEK7 expression in renal tissue of mice (immunoblot); format: in vivo, mouse; conditions: Cis mice, metformin 50 mg/kg i.p., Fig. 9b
# Method: For immunoblot analysis of kidney tissue, total protein lysates were prepared from renal tissue, which was ground in liquid nitrogen and then added to lysis buffer in a Total Protein Extraction Kit (Signalway Antibody, Cat#PE001). Samples were centrifuged at 12,000 rpm for 15 min at 4 °C, and the supernatant was collected immediately. […] Ultimately, both types of protein samples were then mixed with 4× Laemmli loading buffer (Bio-Rad, Cat#1610747) and denatured by boiling at 95 °C for 5 min.
# Prepared protein samples were subjected to 6-15% SDS polyacrylamide gels and separated according to the protein concentrations. Then, the protein bands were transferred to polyvinylidene difluoride (PVDF) membranes by a wet transfer apparatus (Bio-Rad, USA). […] The protein bands were detected with an enhanced chemiluminescence kit (Millipore, Cat#WBKLS0500) using a gel imaging system (Bio-Rad, USA) for visualization and standardization of the amount of protein loaded. α-Tubulin was used as the internal control. […]
# NEK7 [7] = conditions: low dose; cited from earlier work
# Excerpt: Furthermore, we investigated the potential therapeutic medicines targeting to NEK7 and evaluated their effects on alleviating AKI. […] A ...
# AKI mice [8] = experiment: overall therapeutic effect in AKI mice; format: in vivo, mouse; conditions: TNF-α vs Anc80L65 (A20 overexpression)
# Method: as §1
# BMDMs = experiment: pyroptotic induction of BMDMs by ox-DNA or LPS plus ATP (immunoblot of GSDMD); format: cell-based, mouse; conditions: BMDMs pretreated with low-dose TNF-α before ox-dsDNA90 or LPS plus ATP; Fig. 6l
# Method: Primary bone marrow-derived macrophages (BMDMs) were isolated from 6- to 8-week-old C57BL/6J male mice. The mice were sacrificed and soaked in 75% alcohol for 1–2 min. The femurs and tibias were removed and immersed in PBS containing 500 U/mL penicillin and […] streptomycin for 3 min. The marrow cavities were repeatedly rinsed with DMEM using a sterile 1 mL syringe. The cell suspension was collected and centrifuged at 300 × g for 10 min, and the supernatant was discarded. The cell pellet was resuspended in 5 mL red cell lysis buffer (Bio Sharp, Cat#BL503A) on ice for 5 min, followed by centrifugation, and the supernatant was removed. The cells were then resuspended in DMEM complete culture medium supplemented with 10% FBS and 30% L929 cell-conditioned medium as an induction factor.[51] Half of the medium was changed every other day for 5–7 days. The suspended cells were removed, and the adherent BMDMs were digested with trypsin and plated on a six-well plate at a density of 1 × 10^6 cells/well. […]
# as §3, with “concentrations.” for “concentrations. Then, the protein bands were transferred to polyvinylidene difluoride (PVDF) membranes by a wet transfer apparatus (Bio-Rad, USA).”
# [9] = Cis mice, metformin 50 mg/kg i.p. 24 h before and every 24 h after
# [10] = Cis or AA I mice, TNF-α 100 µg/kg pre-injection
molecule,measurement,setting,value
N.N.[Cl][Pt][Cl] [cisplatin],patients developing AKI after first course of treatment,patients,Approximately 13%
"CN(C)C(=N)N=C(N)N [metformin, Metformin]",survival,AKI mice [1]; [9],longer survival time and better survival rate
same,serum creatinine (in words),AKI mice [2]; [9],markedly ameliorated cisplatin-induced serum creatines
same,tubular injury (in words),AKI mice [3]; [9],"markedly ameliorated cisplatin-induced serum creatines, tubular injury"
same,renal fibrosis,AKI mice [4],"markedly ameliorated cisplatin-induced serum creatines, tubular injury, renal fibrosis"
same,NEK7 expression in vitro,NEK7 [5],downregulates NEK7
same,NEK7 expression in vivo,NEK7 [6],downregulates NEK7
same,NEK7 expression (literature),NEK7 [7],limit the expression of NEK7 to alleviate inflammation
TNF-α,survival,"AKI mice [1]; Cis or AA I mice, TNF-α 100 µg/kg once through the caudal vein 24 h before",extended overall survival benefit
same,serum creatinine (in words),AKI mice [2]; [10],alleviated serum creatinine
same,tubular injury (in words),AKI mice [3]; [10],alleviated serum creatinine and tubular injury
same,alleviation of AKI compared with Anc80L65,AKI mice [8],more efficient in alleviating AKI
same,resistance of BMDMs to pyroptotic induction,BMDMs,more resistant to pyroptotic induction
